We go through eight molecules from publication PMC12684391, “Mechanistic insights into the monotherapy and combination potential of FEN1 inhibition in cancer therapy” (Nucleic Acids Research, 2025).

Type in all cases: cell-based
Assay [1] deals with HCT-116, NCI-H460, SUM149PT, MDA-MB-436 cells. Put plainly: Combination viability assay (CTG, Bliss synergy). Particulars: HRP (HCT-116, NCI-H460) and HRD (SUM149PT, MDA-MB-436) cells, 7 days. The procedure: (§1) For combination analysis, cells were seeded in 70 μl of media in 384-well plates pre-dosed with compounds (5-point dose–response matrix) with a D300e digital dispenser (Tecan). Cell proliferation was determined after 7 days using CTG. Analysis was performed with Genedata Screener (Compound Synergy Extension) to determine Synergy scores (Bliss model), using a formulation whereby the Blissexcess is a continuous value and values higher than 2 are usually considered synergistic, and values between 0 and 2 are usually considered additive.

For another assay, the system named is DLD-1 WT cells. Put plainly: Combination viability assay (CTG, Bliss synergy). Particulars: 7 days. On the procedure: as §1
For the next assay, the system named is DLD-1 BRCA2KO cells. Put plainly: Combination viability assay (CTG, Bliss synergy). Particulars: 7 days. The procedure: For combination analysis, cells were seeded in 70 μl of media in 384-well plates pre-dosed with compounds (5-point dose–response matrix) with a D300e digital dispenser (Tecan). Cell proliferation was determined after 7 days using CTG.
Another assay relates to RD-ES cells. Put plainly: Combination viability assay (CTG, Bliss synergy). The note with it: 7 days.
For assay [2], the system named is SUM149PT 53BP1KO and SHLD2KO cells. Put plainly: Combination viability assay (CTG, Bliss synergy). The note with it: SUM149PT with 53BP1 or SHLD2 genetically ablated, 7 days. The procedure: as §1
Assay [3] shares this test system. Put plainly: Cell viability assay (CTG), 7 days, PARP inhibitor resistant models. Particulars: less sensitive than parental. On the procedure: Cells were seeded in 150 μl of media in 96-well plates or in 70 μl of media in 384-well plates pre-dosed with compounds (8–10 points dose response) with a D300e digital dispenser (Tecan) and incubated for 24 h at 37°C and 5% CO2. Cell proliferation at the end of the assay (7 days) was measured using CTG (Promega, G9243). CTG luminescence was normalized to vehicle treated control for each cell line, and data were fitted with a nonlinear regression curve (four parameters) to generate compound sensitivity curves and determine IC50 or EC50 (half maximal inhibitory/effective concentration) values as indicated.

`COc1ncnc(C2CC2)c1-c1ncc2cnn(Cc3ccc(-c4nc(C(F)(F)F)cn4C(C)C)cc3)c2n1` [KSQ-4279]: in assay [1], the “Combination benefit with MSC778” value was “particularly strong”.

Consider `Cc1nc(C)c(Cn2c(=O)n(-c3ncns3)c3cc(S(=O)(=O)NC4(C)CC4)ccc32)s1` [PDD00017238], for which the “Combination benefit with MSC778” value in assay [1] is listed as “particularly strong”. The “Combination effect with MSC778” value in the assay with DLD-1 WT cells is on record as “Synergistic”.

Turning to `Cn1cncc1-c1c(F)cncc1NC(=O)c1c(N)nn2cc(F)cnc12` [Tuvusertib], in the assay on DLD-1 BRCA2KO cells, the “Combination effect with MSC778” value is listed as “at best weakly additive”.

`NC(=O)c1cccc2cn(-c3ccc([C@@H]4CCCNC4)cc3)nc12` [niraparib]: the “Combination effect with MSC778” value in the assay on RD-ES cells is recorded as “combination benefit”.

Take `O=C(c1cc(Cc2n[nH]c(=O)c3ccccc23)ccc1F)N1CCN(C(=O)C2CC2)CC1` [olaparib]: the “Combination effect with MSC778” value in assay [2] is given as “synergized”; in the assay on RD-ES cells, “combination benefit”.

As to `Cn1ncnc1[C@H]1c2n[nH]c(=O)c3cc(F)cc(c23)N[C@@H]1c1ccc(F)cc1` [talazoparib, reference compound], the “Combination effect with MSC778” value in assay [2] is recorded as “synergized”. In addition, the “Change in sensitivity of SUM149PT 53BP1KO and SHLD2KO cells versus parental cells” value in assay [3] was approximately 20 fold.

On to `C[C@]1(c2nc3c(C(N)=O)cccc3[nH]2)CCCN1` [veliparib], for which, in the assay with RD-ES cells, the “Combination effect with MSC778” value is on record as “combination benefit”.

For PDD00017273, the “Combination effect with MSC778” value is recorded as “Synergistic” with DLD-1 WT cells and “limited to additivity” in the assay with RD-ES cells.
